PubChem BioAssay AID330 (DTP/NCI, 2004)
Several values for one entry are separate records, joined by “and”; a condition that tells them apart may be missing. Equal entries are not always repeated. Inconclusive results and toxic doses are left out. The calls were made as follows: active = survival T/C of 150% or more; inactive = T/C below 125% in these data.

Tested on: P388 leukemia ip, CD2F1 mice, survival T/C
Experiment: NCI In Vivo Anticancer Drug Screen. Data for tumor model P388 Leukemia (intraperitoneal) in CD2F1 (CDF1) mice
Conditions: endpoint: median survival time, higher = longer survival
Outline: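 Mice carrying the transplanted tumor received test compound or vehicle. Survival was recorded in each group, and the value is the treated-group measurement divided by that of the vehicle-treated control group.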

[1] = dose: 50.0 mg/kg/injection, schedule: Q01DX005 (ip), vehicle: saline with Tween-80
[2] = dose: 100.0 mg/kg/injection, schedule: Q01DX005 (ip), vehicle: saline with Tween-80
[3] = dose: 15.0 mg/kg/injection, schedule: Q01DX005 (ip), vehicle: saline with Tween-80
[4] = dose: 30.0 mg/kg/injection, schedule: Q01DX005 (ip), vehicle: saline with Tween-80
[5] = dose: 60.0 mg/kg/injection, schedule: Q01DX005 (ip), vehicle: saline with Tween-80

Measured: T/C

CC(=O)C[n+]1ccccc1C
inactive: [1] 93 % of control | [2] 107 % of control

COC(=O)C[C@@]1(C(=O)OC)[C@@H](C(=O)OC)C(C(=O)OC)=NN1C
inactive: dose: 12.5 mg/kg/injection, schedule: Q04DX002 (ip), vehicle: Klucel (hydroxypropylcellulose) (HPC) 100 % of control | dose: 25.0 mg/kg/injection, schedule: Q04DX002 (ip), vehicle: Klucel (hydroxypropylcellulose) (HPC) 98 % of control | dose: 50.0 mg/kg/injection, schedule: Q04DX002 (ip), vehicle: Klucel (hydroxypropylcellulose) (HPC) 100 % of control

CC(NC(=O)C(N)CCC(=O)O)C(=O)O (stereo not given)
inactive: dose: 50.0 mg/kg/injection, schedule: Q01DX005 (ip), vehicle: saline 103 % of control | dose: 100.0 mg/kg/injection, schedule: Q01DX005 (ip), vehicle: saline 100 % of control | dose: 200.0 mg/kg/injection, schedule: Q01DX005 (ip), vehicle: saline 107 % of control

CC1(C)CC(Nc2ncnc3c2ncn3C2OC(CO)C(O)C2O)CC(C)(C)N1O (stereo not given)
inactive: dose: 50.0 mg/kg/injection, schedule: Q01DX009 (ip), vehicle: saline 96 % of control | dose: 100.0 mg/kg/injection, schedule: Q01DX009 (ip), vehicle: saline 95 % of control | dose: 200.0 mg/kg/injection, schedule: Q01DX009 (ip), vehicle: saline 94 % of control

Clc1ccc(/C=C/c2ccccn2)cc1
inactive: [1] 91 % of control | [2] 90 % of control | dose: 200.0 mg/kg/injection, schedule: Q01DX005 (ip), vehicle: saline with Tween-80 91 % of control

COc1cc(/C=N/NS(=O)(=O)c2ccc(C)cc2)cc([N+](=O)[O-])c1O
inactive: dose: 3.12 mg/kg/injection, schedule: Q01DX009 (ip), vehicle: distilled water + Tween-80 87 % of control | dose: 6.25 mg/kg/injection, schedule: Q01DX009 (ip), vehicle: distilled water + Tween-80 103 % of control | dose: 12.5 mg/kg/injection, schedule: Q01DX009 (ip), vehicle: distilled water + Tween-80 104 % of control | dose: 25.0 mg/kg/injection, schedule: Q01DX009 (ip), vehicle: distilled water + Tween-80 104 % of control | dose: 25.0 mg/kg/injection, schedule: Q01DX009 (ip), vehicle: other 106 % of control | dose: 50.0 mg/kg/injection, schedule: Q01DX009 (ip), vehicle: other 99 % of control | dose: 100.0 mg/kg/injection, schedule: Q01DX009 (ip), vehicle: other 106 % of control | dose: 200.0 mg/kg/injection, schedule: Q01DX009 (ip), vehicle: other 98 % of control | dose: 400.0 mg/kg/injection, schedule: Q01DX009 (ip), vehicle: other 113 % of control

c1ccc2c3c(c4c(c2c1)CN(C1CCCCC1)CO4)OCN(C1CCCCC1)C3
inactive: dose: 6.25 mg/kg/injection, schedule: Q01DX005 (ip), vehicle: saline with Tween-80 106 % of control | dose: 12.5 mg/kg/injection, schedule: Q01DX005 (ip), vehicle: saline with Tween-80 107 % of control and 112 % of control | [1] 116 % of control

CC1=CC(=O)C(O)C2(C)C1CC1OC(=O)C(O)C3(O)C4(C)OCC13C2C(O)C4O (stereo not given)
inactive: dose: 0.19 mg/kg/injection, schedule: Q01DX009 (ip), vehicle: saline + alcohol 102 % of control | dose: 0.38 mg/kg/injection, schedule: Q01DX009 (ip), vehicle: saline + alcohol 105 % of control | dose: 0.75 mg/kg/injection, schedule: Q01DX009 (ip), vehicle: saline + alcohol 119 % of control | dose: 1.5 mg/kg/injection, schedule: Q01DX009 (ip), vehicle: saline + alcohol 105 % of control and 112 % of control

CCOc1c(Br)cc(/C=C/[N+](=O)[O-])cc1OC
inactive: dose: 3.75 mg/kg/injection, schedule: Q01DX005 (ip), vehicle: saline with Tween-80 103 % of control | dose: 7.5 mg/kg/injection, schedule: Q01DX005 (ip), vehicle: saline with Tween-80 112 % of control and 116 % of control | [3] 109 % of control and 120 % of control | [4] 120 % of control

COC(=O)C1=C(C(=O)OC)[C](C(=O)c2ccccc2)([Sn]([CH3])([CH3])[CH3])N=N1 (stereo not given)
inactive: dose: 0.78 mg/kg/injection, schedule: Q01DX009 (ip), vehicle: saline 92 % of control | dose: 1.56 mg/kg/injection, schedule: Q01DX009 (ip), vehicle: saline 89 % of control | dose: 3.12 mg/kg/injection, schedule: Q01DX009 (ip), vehicle: saline 93 % of control

CCOC(=O)Nc1ccc(C2SCCN2C(=O)NC)cc1 (stereo not given)
inactive: [5] 109 % of control | dose: 120.0 mg/kg/injection, schedule: Q01DX005 (ip), vehicle: saline with Tween-80 103 % of control | dose: 240.0 mg/kg/injection, schedule: Q01DX005 (ip), vehicle: saline with Tween-80 100 % of control

N#Cc1ncc(Cl)c2ccccc12
inactive: dose: 50.0 mg/kg/injection, schedule: Q01DX009 (ip), vehicle: suspension in saline 90 % of control | dose: 100.0 mg/kg/injection, schedule: Q01DX009 (ip), vehicle: suspension in saline 87 % of control | dose: 200.0 mg/kg/injection, schedule: Q01DX009 (ip), vehicle: suspension in saline 97 % of control

CCOC(=O)c1cn(CC)c2c(ccc3cnccc32)c1=O
inactive: dose: 60.0 mg/kg/injection, schedule: Q01DX005 (ip), vehicle: Klucel (hydroxypropylcellulose) (HPC) 103 % of control | dose: 120.0 mg/kg/injection, schedule: Q01DX005 (ip), vehicle: Klucel (hydroxypropylcellulose) (HPC) 100 % of control | dose: 240.0 mg/kg/injection, schedule: Q01DX005 (ip), vehicle: Klucel (hydroxypropylcellulose) (HPC) 98 % of control

COc1ccccc1C(O)(c1ccccc1OC)C1(O)CCN(C)CC1
inactive: dose: 50.0 mg/kg/injection, schedule: Q01DX005 (ip), vehicle: Klucel (hydroxypropylcellulose) (HPC) 94 % of control | dose: 100.0 mg/kg/injection, schedule: Q01DX005 (ip), vehicle: Klucel (hydroxypropylcellulose) (HPC) 95 % of control

O=C(O)CC1OCC=C2C[N+]3([O-])CCC45c6ccccc6NC4C1C2CC53 (stereo not given)
inactive: [3] 105 % of control | [4] 105 % of control | [5] 99 % of control and 101 % of control

[Br][Pb]([Br])([c]1ccccc1)[c]1ccccc1
inactive: dose: 12.5 mg/kg/injection, schedule: Q01DX009 (ip), vehicle: saline with Tween-80 104 % of control and 112 % of control | dose: 25.0 mg/kg/injection, schedule: Q01DX009 (ip), vehicle: saline with Tween-80 113 % of control (2×) and 114 % of control | dose: 50.0 mg/kg/injection, schedule: Q01DX009 (ip), vehicle: saline with Tween-80 107 % of control and 121 % of control | dose: 100.0 mg/kg/injection, schedule: Q01DX009 (ip), vehicle: saline with Tween-80 98 % of control
